*1 amine or outer side, *2 acyl side, *3 side chain or, on linkers, in order; H or OH if unused. Where a SMILES comes first, the peptide text is derived from it. Side-chain parts run from the residue outwards. [ ]: non-standard residue; d: D form. The star is where a group is joined. Tetrahydroisoquinolin(2-yl) = c1ccc2c(c1)CCN(*)C2; Ac3c(1R,2S-2-vinyl) = C=C[C@@H]1C[C@]1(N)C(=O)O; Hyp = O=C(O)[C@@H]1C[C@@H](O)CN1; Chg = N[C@H](C(=O)O)C1CCCCC1; CO = O=C([*:1])[*:2]
Columns and labels:
Hepatitis C virus = test: Antiviral activity against Hepatitis C virus infected in human HuH7 cells assessed as inhibition of HCV subgenomic replicon replication after 72 hrs by ELISA; format: functional, organism-based, Hepacivirus hominis, Huh-7; settings: Hepatitis C virus, Huh-7, 72 h; read-out: EC50
[1] = Inhibition of Hepatitis C virus full-length NS3/4A protease assessed as quenched-fluorogenic RET-S1 substrate cleavage incubated for 10 mins prior to substrate addition by FRET analysis; set-up: species or system Hepacivirus hominis

Row | Compound | EC50 (Hepatitis C virus) [nM] | IC50 [1] [nM]
1 | CC(C)(C)OC(=O)N[C@H]1CCCCC/C=C\[C@@H]2C[C@@]2(C(=O)NS(=O)(=O)C2CC2)NC(=O)[C@@H]2C[C@@H](OC(=O)N3CCc4c(F)ccc(F)c4C3)CN2C1=O | 24 | 1.2
2 | CC(C)(C)OC(=O)N[C@H]1CCCCC/C=C\[C@@H]2C[C@@]2(C(=O)NS(=O)(=O)N2CCOCC2)NC(=O)[C@@H]2C[C@@H](OC(=O)N3Cc4ccccc4C3)CN2C1=O | 52 | 4.4
3 | CC(C)(C)OC(=O)N[C@H]1CCCCC/C=C\[C@@H]2C[C@@]2(C(=O)NS(=O)(=O)C2CC2)NC(=O)[C@@H]2C[C@@H](OC(=O)N3Cc4ccc(F)cc4C3)CN2C1=O | 4 | 3
4 | CC(C)(C)OC(=O)N[C@H]1CCCCC/C=C\[C@@H]2C[C@@]2(C(=O)NS(=O)(=O)C2CC2)NC(=O)[C@@H]2C[C@@H](OC(=O)N3Cc4cccc(N5CCOCC5)c4C3)CN2C1=O | 77 | 1.8
5 | C=C[C@@H]1C[C@]1(NC(=O)[C@@H]1C[C@@H](OC(=O)N2CCc3ccccc3C2)CN1C(=O)[C@@H](NC(=O)[C@@H](NC(C)=O)C1CCCCC1)C(C)C)C(=O)O (Ac-[Chg]V[Hyp]([CO-Tetrahydroisoquinolin(2-yl)])[Ac3c(1R,2S-2-vinyl)]-OH) | > 10000 | 210
